Results taken from US20140094465A1, “Compounds as S-Nitrosoglutathione Reductase Inhibitors” (N30 PHARMACEUTICALS, INC., priority 2011, published 2014).

target: T1, S-nitrosoglutathione reductase (GSNOR) (Homo sapiens, UniProt P11766); assay: GSNOR assay (inhibition of GSNOR activity, NADH absorbance at 340 nm); format: biochemical; settings: not given
T1 construct: made in house; host or cells: E. coli
Procedure: Various compounds were tested in vitro for their ability to inhibit GSNOR activity.
GSNOR expression and purification is described in Biochemistry 2000, 39, 10720-10729.
Pre-cultures were grown from stabs of a GSNOR glycerol stock in 2XYT media containing 100 ug/ml ampicillin after an overnight incubation at 37° C. […] GSNOR expression was induced with 0.1% arabinose in an overnight incubation at 20° C.
E. coli cell paste was lysed by nitrogen cavitation and the clarified lysate purified by Ni affinity chromatography on an AKTA FPLC (Amersham Pharmacia). The column was eluted in 20 mM Tris pH 8.0/250 mM NaCl with a 0-500 mM imidazole gradient. Eluted GSNOR fractions containing the Smt-GSNOR fusion were digested overnight with Ulp-1 at 4° C. to remove the affinity tag then re-run on the Ni column under the same conditions. GSNOR was recovered in the flowthrough fraction and for crystallography is further purified by Q-Sepharose and Heparin flowthrough chromatography in 20 mM Tris pH 8.0, 1 mM DTT, 10 uM ZnSO4.
GSNOR assay: GSNO and enzyme/NADH Solutions are made up fresh each day. The solutions are filtered and allowed to warm to room temperature. GSNO solution: 100 mM NaPO4 (pH 7.4), 0.480 mM GSNO. 396 μL of GSNO Solution is added to a cuvette followed by 8 μL of test compound in DMSO (or DMSO only for full reaction control) and mixed with the pipette tip. Compounds to be tested are made up at a stock concentration of 10 mM in 100% DMSO. 2 fold serial dilutions are done in 100% DMSO. 8 μL of each dilution are added to an assay so that the final concentration of DMSO in the assay is 1%. The concentrations of compounds tested range from 100 to 0.003 μM. Enzyme/NADH solution: 100 mM NaPO4 (pH 7.4), 0.600 mM NADH, 1.0 μg/mL GSNO Reductase. 396 μL of the Enzyme/NADH solution is added to the cuvette to start the reaction. The cuvette is placed in the Cary 3E UV/Visible Spectrophotometer and the change in 340 nm absorbance/min at 25° C. is recorded for 3 minutes. The assays are done in triplicate for each compound concentration. IC50's for each compound are calculated using the standard curve analysis in the Enzyme Kinetics Module of SigmaPlot.
Final assay conditions: 100 mM NaPO4, pH 7.4, 0.240 mM GSNO, 0.300 mM NADH, 0.5 μg/mL GSNO Reductase, and 1% DMSO. Final volume: 800 μL/cuvette.

T1 sequence (P11766 whole entry): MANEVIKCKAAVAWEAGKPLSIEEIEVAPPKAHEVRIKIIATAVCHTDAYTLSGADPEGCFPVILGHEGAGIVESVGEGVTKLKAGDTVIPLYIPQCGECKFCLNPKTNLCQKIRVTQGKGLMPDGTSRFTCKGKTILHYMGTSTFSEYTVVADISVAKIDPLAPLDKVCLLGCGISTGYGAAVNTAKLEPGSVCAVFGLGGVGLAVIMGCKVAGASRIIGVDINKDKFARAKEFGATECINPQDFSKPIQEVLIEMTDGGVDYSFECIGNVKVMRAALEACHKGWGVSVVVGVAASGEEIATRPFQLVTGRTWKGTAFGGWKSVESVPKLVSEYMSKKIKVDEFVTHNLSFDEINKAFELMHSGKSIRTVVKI

SMILES	IC50
O=C(O)c1ccc(-n2c(C(F)(F)F)nc3cc(O)ccc3c2=O)cc1 [VIII-2, 4-(7-hydroxy-4-oxo-2-(trifluoromethyl)quinazolin-3(4H)-yl)benzoic acid]	100 to 1000 nM

same assay, conditions: GSNOR inhibitor activity, Tables 1-6; read-out: IC50 range

IC50	SMILES
< 100 nM	O=c1c(-c2ccc(O)c([N+](=O)[O-])c2)c(C(F)(F)F)oc2cc(O)ccc12 [IV-45, 7-hydroxy-3-(4-hydroxy-3-nitrophenyl)-2-(trifluoromethyl)-4H-chromen-4-one]
< 100 nM	O=C(O)c1ccc(CC(=O)c2ccc(O)cc2F)c(F)c1 [VI-2, 3-fluoro-4-(2-(2-fluoro-4-hydroxyphenyl)-2-oxoethyl)benzoic acid]
100 to 1000 nM	O=C(O)c1ccc(NCc2ccc(O)c(F)c2F)c(F)c1 [VI-32, 4-((2,3-difluoro-4-hydroxybenzyl)amino)-3-fluorobenzoic acid]
< 100 nM	O=C(O)c1ccc(-c2ccc3c(F)c(O)ccc3n2)c(F)c1 [Compound I-56]
< 100 nM	O=c1[nH]nc(-c2ccc(-c3ccc4cc(O)ccc4n3)cc2)o1 [Compound I-24]
< 100 nM	Cc1sc2cc(O)ccc2c(=O)c1-c1ccc(-c2nnn[nH]2)cc1 [IV-34]
100 to 1000 nM	O=C(C[C@H]1CC[C@H](C(=O)O)CC1)c1ccc(O)cc1O [VI-1, (trans)-4-(2-(2,4-dihydroxyphenyl)-2-oxoethyl)cyclohexanecarboxylic acid]
< 100 nM	COc1cc(C(=O)O)ccc1-c1cc(F)c2cc(O)ccc2n1 [Compound I-48, 4-(4-fluoro-6-hydroxyquinolin-2-yl)-3-methoxybenzoic acid]
< 100 nM	O=C(O)c1ccc(/C(=C\C(F)(F)F)C(=O)c2ccc(O)cc2O)cc1 [VI-17, (E)-4-(1-(2,4-dihydroxyphenyl)-4,4,4-trifluoro-1-oxobut-2-en-2-yl)benzoic acid]
1000 to 10000 nM	O=C(O)c1ccc(Oc2c(-c3ccc(Cl)cc3)oc3cc(O)ccc3c2=O)cc1 [Compound V-7, 4-(2-(4-chlorophenyl)-7-hydroxy-4-oxo-4H-chromen-3-yloxy)benzoic acid]
< 100 nM	Cc1cc(C(=O)O)ccc1-c1ccc2c(F)c(O)ccc2c1 [III-33]
< 100 nM	O=C(O)c1ccc(-c2cc(F)c3cc(O)ccc3n2)c(Cl)c1 [Compound I-37, 3-chloro-4-(4-fluoro-6-hydroxyquinolin-2-yl)benzoic acid]
< 100 nM	O=c1c(-c2ccc(-c3nnn[nH]3)cc2Cl)c(C(F)(F)F)oc2cc(O)ccc12 [IV-39]
1000 to 10000 nM	O=C(O)C1CCN(c2ncc3cc(O)ccc3n2)CC1 [II-7]
< 100 nM	O=C(O)c1ccc(-c2ncc3cc(O)ccc3n2)c(F)c1 [II-6]
< 100 nM	COc1cc(C(=O)O)ccc1-c1cc(F)c2c(F)c(O)ccc2c1 [III-43, 4-(4,5-difluoro-6-hydroxynaphthalen-2-yl)-3-methoxybenzoic acid]
< 100 nM	O=C(O)c1ccc(-c2ccc3cc(O)cc(F)c3n2)cc1 [Compound I-54, 4-(8-fluoro-6-hydroxyquinolin-2-yl)benzoic acid]
< 100 nM	O=C(O)c1ccc(CC(=O)c2ccc(O)cc2)c(F)c1 [VI-9, 3-fluoro-4-(2-(4-hydroxyphenyl)-2-oxoethyl)benzoic acid]

IC50	SMILES
< 100 nM	O=c1nc(-c2ccc(-c3ccc4cc(O)ccc4n3)cc2)[nH]o1 [Compound I-12]
< 100 nM	O=C(O)c1ccc(-c2ccc3cc(O)ccc3n2)c(O)c1 [Compound I-55, 3-hydroxy-4-(6-hydroxyquinolin-2-yl)benzoic acid]
< 100 nM	O=C(O)C1CCN(c2nc3ccc(O)cc3cc2C(F)(F)F)CC1 [Compound I-41]
100 to 1000 nM	O=C(O)c1cnc(-c2ccc3cc(O)ccc3c2)cn1 [III-8]
< 100 nM	N#Cc1cc(C(=O)O)ccc1-c1ccc2cc(O)ccc2c1 [III-6]
< 100 nM	N#Cc1cc(C(=O)O)ccc1-c1ccc2cc(O)ccc2n1 [Compound I-49, 3-cyano-4-(6-hydroxyquinolin-2-yl)benzoic acid]
< 100 nM	COc1c(-c2ccc(C(=O)O)cc2)ccc2cc(O)ccc12 [III-24, 4-(6-hydroxy-1-methoxynaphthalen-2-yl)benzoic acid]
100 to 1000 nM	O=c1[nH]nc(-c2ccc(-c3ccc4cc(O)ccc4n3)cc2)s1 [Compound I-33]
< 100 nM	O=C(O)c1ccc(-c2ccc3cc(O)ccc3c2)c(C(F)(F)F)c1 [III-20, 4-(6-hydroxynaphthalen-2-yl)-3-(trifluoromethyl)benzoic acid]
< 100 nM	O=C(O)c1ccc(-c2c(C(F)(F)F)oc3cc(O)ccc3c2=O)s1 [IV-24]
< 100 nM	O=C(O)c1ccc(-c2ccc3cc(O)ccc3n2)cc1O [Compound I-60, 2-hydroxy-4-(6-hydroxyquinolin-2-yl)benzoic acid]
< 100 nM	O=C(O)c1ccc(CS(=O)(=O)c2ccc(O)cc2)c(F)c1 [VI-26, 3-fluoro-4-(((4-hydroxyphenyl)sulfonyl)methyl)benzoic acid]
100 to 1000 nM	O=C(O)c1ccc(-c2ccc3cc(O)ccc3c2)c(N2CCOCC2)c1 [III-10]
1000 to 10000 nM	O=C(O)c1ccc(NCc2ccc(O)cc2F)c(F)c1 [VI-33, 3-fluoro-4-((2-fluoro-4-hydroxybenzyl)amino)benzoic acid]
< 100 nM	O=c1nc(-c2ccc(-c3ccc4cc(O)ccc4n3)c(F)c2)[nH]o1 [Compound I-21]
< 100 nM	CCOc1cc(-c2c(C(F)(F)F)oc3cc(O)ccc3c2=O)cc([N+](=O)[O-])c1O [IV-46, 3-(3-ethoxy-4-hydroxy-5-nitrophenyl)-7-hydroxy-2-(trifluoromethyl)-4H-chromen-4-one]
100 to 1000 nM	O=C(O)c1ccc(COc2ccc(O)cc2F)c(F)c1 [VI-19, 3-fluoro-4-((2-fluoro-4-hydroxyphenoxy)methyl)benzoic acid]

same assay, conditions: GSNOR; read-out: IC50

IC50	SMILES
< 100 nM	O=C(O)c1ccc(CC(=O)c2ccc(O)cc2F)c(F)c1 [VI-2, 3-fluoro-4-(2-(2-fluoro-4-hydroxyphenyl)-2-oxoethyl)benzoic acid]

same assay, conditions: Table 7; GSNOR inhibition, IC50 range class a/b/c; read-out: IC50

IC50	SMILES
100 to 1000 nM	O=C(O)c1ccc(-c2csc(-c3ccc(O)cc3)n2)cc1 [VII-2, 4-(2-(4-hydroxyphenyl)thiazol-4-yl)benzoic acid]
< 100 nM	CCCCCCn1c(-c2ccc(O)cc2)ccc1-c1ccc(C(=O)O)cc1 [VII-34, 4-(1-hexyl-5-(4-hydroxyphenyl)-1H-pyrrol-2-yl)benzoic acid]
< 100 nM	O=C(O)c1ccc(-c2csc(-c3ccc(O)c(F)c3)n2)s1 [VII-3, 5-(2-(3-fluoro-4-hydroxyphenyl)thiazol-4-yl)thiophene-2-carboxylic acid]
1000 to 10000 nM	O=C(O)c1ccc(-c2ncc(-c3ccc(O)cc3)cn2)cc1 [VII-14, 4-(5-(4-hydroxyphenyl)pyrimidin-2-yl)benzoic acid]
100 to 1000 nM	O=C(O)c1ccc(-c2ccc(-c3ccc(O)cc3)cc2)s1 [VII-21, 5-(4′-hydroxy-[1,1′-biphenyl]-4-yl)thiophene-2-carboxylic acid]
100 to 1000 nM	Cn1c(-c2ccc(O)cc2)ccc1-c1ccc(C(=O)O)s1 [VII-24, 5-(5-(4-hydroxyphenyl)-1-methyl-1H-pyrrol-2-yl)thiophene-2-carboxylic acid]
100 to 1000 nM	O=C(O)c1ccc(-c2ccc(-c3ccc(O)cc3F)s2)cc1 [VII-8, 4-(5-(2-fluoro-4-hydroxyphenyl)thiophen-2-yl)benzoic acid]

same assay, conditions: Table 8; GSNOR inhibition, IC50 range class a/b/c; read-out: IC50

IC50	SMILES
100 to 1000 nM	Cc1cc2cc(O)ccc2c(=O)n1[C@H]1CC[C@H](C(=O)O)CC1 [VIII-12, (trans)-4-(6-hydroxy-3-methyl-1-oxoisoquinolin-2(1H)-yl)cyclohexanecarboxylic acid]
< 100 nM	Cn1c(-c2ccc(C(=O)O)cc2)nc2ccc(O)cc2c1=O [VIII-10, 4-(6-hydroxy-3-methyl-4-oxo-3,4-dihydroquinazolin-2-yl)benzoic acid]
100 to 1000 nM	Cn1c(-c2ccc(C(=O)O)cc2)cc2ccc(O)cc2c1=O [VIII-11, 4-(7-hydroxy-2-methyl-1-oxo-1,2-dihydroisoquinolin-3-yl)benzoic acid]
100 to 1000 nM	O=C(O)c1ccc(-c2nc3ccc(O)cc3s2)cc1 [VIII-7, 4-(6-hydroxybenzo[d]thiazol-2-yl)benzoic acid]
100 to 1000 nM	Oc1ccc2nc(-c3ccc(-c4nnn[nH]4)cc3)sc2c1 [VIII-5, 2-(4-(1H-tetrazol-5-yl)phenyl)benzo[d]thiazol-6-ol]
100 to 1000 nM	Cc1cc2cc(O)ccc2c(=O)n1-c1ccc(C(=O)O)cc1 [VIII-13, 4-(6-hydroxy-3-methyl-1-oxoisoquinolin-2(1H)-yl)benzoic acid]
